Structures are written as SMILES.

On to `CC(C)OC1CCC(=O)N1S(=O)(=O)C=Cc1ccccc1` (stereo not drawn), for which the melting point lay within 92 to 94 °C.
The figure for `COCC(=O)N(CC(C)=O)c1c(C)cccc1C` is 56 to 57 °C; for `Cc1ccc(Cc2cnc(NCCSCc3cccc(CN(C)C)c3)[nH]c2=O)cn1` it is 122 to 125 °C.
The figure for `O=C(Cl)C1CCN(c2cc(-c3ccccc3)nc3ccc(F)cc23)CC1` is 243 to 245 °C; for `O=C(N[C@H](Cc1cccc(OC(F)(F)C(F)F)c1)[C@@H](O)c1csc(-c2ccccc2)n1)c1cccc2c1C=CCCC2` (racemic) it is 137 to 138 °C.
Then `CCCCCCCCCCCCCCOc1ccc(CNC(C)=O)cc1`, with 100 to 101 °C; and `CCN1CC(=O)N(c2cc(Cl)ccc2OC)C1=S`, with 171 to 174 °C; and `CSC1C(=O)Nc2c(Nc3ccccc3Cl)cccc21` (stereo not drawn), with 151 to 153 °C.
With `CC(n1cnc2cc(-c3ccc(F)cc3)sc2c1=O)C(O)(Cn1cncn1)c1ccc(F)cc1F` (stereo not drawn), the melting point fell in the range of 118 to 127 °C.
Then `COc1ccc(CNc2cc3c(Nc4ccc(Cl)c(Br)c4)ncnc3cn2)cc1`, with 207 to 210 °C; and `N#Cc1cnn(-c2cc(Cl)c(Cl)c(Cl)c2Cl)c1N`, with 168 to 169 °C.
Then `CC(Oc1ccc(Oc2ncc(C(F)(F)F)cc2F)cc1)C(=O)Nc1ccc(C(F)(F)F)cc1` (stereo not drawn), with 127 to 128 °C.
Then `COc1c(Br)c(CO)c(OC)c2ccccc12`, with 115 to 117 °C; and `CC(C)(C)[Si](C)(C)OCCCC(=O)c1cc(-c2ccc(S(C)(=O)=O)cc2)n(C2CCCCC2)n1`, with 131 to 133 °C.
The compound `CN1CCN(CC(=O)Nc2cccc3c2C(=O)c2c-3n[nH]c2-c2ccc(N(C)C)cc2)CC1` came in with a melting point of more than 300 °C.
For the compound `Cn1nc(C(F)F)[nH]c1=O`, the melting point came out at 141 °C.
The figure for `CC1(C)Oc2ccc(S(C)(=O)=O)cc2[C@@H](N2CCSC2=NC#N)[C@@H]1O` (relative stereo) is 304 to 307 °C; for `C=CCc1ccc2oc(C(=O)OCC)c(C)c2c1O` it is 123 °C; for `CCOC(=O)C(C#N)=Cc1c(Cl)n(Cc2ccc(OC)cc2)c2ccccc12` it is 126 to 128 °C.
The figure for `N#Cc1ccc(C=O)c(-c2cccs2)c1` is 114 °C; for `COc1ccccc1-c1cc2c(ccn2C)c2c1C(=O)NC2=O` it is 243 to 245 °C; for `CC(C)(C)c1ccc(CC[C@H](O)CCCC2CCCCC2)cc1NC(=O)CC1c2ccccc2Oc2ccccc21` it is 128 to 129 °C.
For `Cc1c(NC(=O)c2ccc(-c3ccc(F)cc3F)cc2F)ccc2cc(CN3CCCC3)cnc12`, the melting point was in the range of 172 to 173 °C.
Take `CCOc1ccc(CCNC(=O)/C=C/c2cccs2)cc1S(=O)(=O)NC(=S)NC`: the melting point is 74 °C.
The compound `COc1ccc(N(CCCC(=O)O)C(=O)c2ccc(Cl)cc2)cc1-c1ccccc1` came in with a melting point of 114 to 116 °C.
Then `Cc1cc(C=Cc2ccc(-c3ccc(C(F)(F)F)cc3)cc2)ccc1OCC(=O)O`, with 243 to 245 °C.
The figure for `CN1CC(CCCl)Oc2ccc(Br)cc2C1=O` (stereo not drawn) is 92 to 94 °C.
For the compound `CCOC[C@]1(OC)CC[C@H]2[C@@H]3CCC4=CC(=O)CCC4=C3[C@@H](c3ccc(C(C)=O)cc3)C[C@@]21C`, the melting point lay within 134 to 137 °C.
Then `CCCCOC(=O)COc1ccc(C(=O)N(C)c2ccccc2Sc2ccccc2-c2nnn[nH]2)cc1`, with 148 to 150 °C.
Then `COC(=O)c1ccc(C(=O)NS(=O)(=O)c2ccc(CCNC(=O)CC(C)C)cc2)cn1`, with 176 to 178 °C; and `CC(C)(c1ccc(OC#N)cc1)c1ccc(OC#N)cc1`, with 82 °C.
Take `COc1cc(OC)c(C(C)=O)c(O)c1C`: the melting point lay within 143 to 144 °C.
Then `CC1(C)C(=O)C(C)(C)c2cc(CCN3CCN(c4nsc5ccccc45)CC3)ccc21`, with 122 to 126 °C; and `Cc1ccc(F)cc1NC(=O)CN1CCNC(CO)C1` (stereo not drawn), with 128 °C.
The figure for `COC(=O)c1ccc(NCc2cc(O)ccc2O)cc1` is 175 °C; for `CC#CCOc1ccc(S(=O)(=O)NC(CO)C(=O)OC)cc1` (stereo not drawn) it is 72 to 74 °C.
The figure for `CCOC(=O)C1=C(C)NC(=O)N(CCCN(C)Cc2ccccc2)C1c1cccc(Cl)c1Cl` (stereo not drawn) is 154 to 156 °C; for `COc1ccc(NC(=O)c2ccc(OC)c(N)c2)cc1` it is 164 to 167 °C.
Regarding `N#Cc1ccc(N(CCCCOc2ccc(OS(N)(=O)=O)cc2)n2cnnc2)cc1`, the melting point was in the range of 164 to 172 °C.
The figure for `COc1c(Cl)ccc(-c2cc(N)c(Cl)c(C(=O)NOCc3cnc(Cl)s3)n2)c1F` is 164 to 167 °C; for `C[C@@H](n1cnn(-c2ccc(OCC(F)(F)C(F)F)cc2)c1=O)[C@@]1(c2ccc(F)cc2F)CO1` it is 116 to 117 °C.
The figure for `O=C(Nc1ccc(F)cc1)c1ccccc1F` is 102 to 104 °C; for `OC[C@H](O)CNc1ccc2cc(OCC3CC3)ccc2c1` it is 138 °C.
Regarding `Nc1nc2ccccc2c2c1nc(CO)n2CC1(O)CCCCC1`, the melting point lay in the range of 244 to 248 °C.
The figure for `CN(C)c1ccc(C(=O)OC2CCN(Cc3ccccc3)CC2)cc1` is 103 °C; for `COc1ccc(/C=C/CCCCO)cc1` it is 66 °C.
Then `Brc1c(NC2=NCCN2)ccc2c1ncn2Cc1ccccc1`, with 197 to 198 °C; and `CC(C)(C)c1ccc(C[C@@H](NC(=O)c2cccc3c(F)cccc23)[C@@H](O)c2ccc(F)cc2)cc1` (racemic), with 148 to 149 °C; and `CSc1nc(C)cc(O)n1`, with 149 °C.
The figure for `CCC1(c2ccc(Cl)cc2)OCc2c1cnc(CN(C)C)c2O` (stereo not drawn) is 151 °C.
`O=C(O)CCCOc1cccc(CNC(=O)c2nc3ccccc3c(=O)[nH]2)c1` registered a melting point of 259 to 260 °C.
On to `CC(C)=Cc1ccc(/C=C/CCl)cc1`, for which the melting point lay in the range of 48 to 50 °C.
The figure for `CC(C)C[C@H](NC(=O)[C@@H]1CCCN1C(=O)[C@@H](N)CSCc1ccccc1)C(=O)NCC(N)=O` is 130 to 134 °C.
As to `Fc1cc(C(c2cccc(Cl)c2)n2cncn2)c2ccccc2n1` (stereo not drawn), the melting point came to 140 °C.
The figure for `N#CC(C#N)=C1N(CCCN2CCCCC2)CCCN1CCCN1CCCCC1` is 88 to 90 °C.
Compound `COc1cc2nc(C(C)(C)C)sc2cc1NC(=S)SCCC(=O)O` displayed a melting point of 154 to 156 °C.
The figure for `CC1CN(c2ccccn2)CCN1Cc1nc2ccccc2[nH]1` (stereo not drawn) is 151 to 153 °C.
The figure for `Cn1ccnc1COc1cc(Oc2ccc(S(C)(=O)=O)cc2)cc2cc(C3=NCC(CC(N)=O)S3)[nH]c12` (stereo not drawn) is 130 to 131 °C; for `O=C(CCNC(=O)OCc1ccccc1)NCCSC(=O)c1ccccc1` it is 115 to 118 °C; for `CC(C)CN1N=C2C=NC(c3ccccc3)=CN2C1CC(=O)O` (stereo not drawn) it is 160 °C.
The figure for `O=C(O)CCC1(CCC(=O)O)CC(=O)c2ccc(OCCCOc3ccccc3)cc2O1` is 132 to 133 °C; for `Cc1ccc2ccc3ccccc3c2c1O` it is 88 to 92 °C; for `Cc1ccc(Sc2nc(-c3ccc(Cl)cc3)c(CCC(=O)O)o2)cc1` it is 160 to 161 °C.

In general, melting point refers to the temperature of the solid-liquid transition.
